Data on one molecule can be found in patent US8728506B2, “Durable pest repellent and pest repellent resin composition” (Toagosei Co., Ltd., priority 2009, dated 2014).

Series [1] can be described thus: Heat resistance by thermal analysis (TG/DTA in air). The conditions noted are these: temperature at which amount of supported chemical component is reduced by 1/3, 30-600° C., 20° C./min. Format: physicochemical. On the procedure: Furthermore, it was confirmed by thermal analysis that the supported N,N-diethyl-m-toluamide acquired heat resistance. The thermal analysis was carried out using a Model TG/DTA220 manufactured by Seiko Instruments under an air atmosphere, the measurement temperature was 30° C. to 600° C., and the rate of temperature increase was 20° C./min. Since the measurement is carried out in air, the overall heat resistance in air including vaporization and oxidative decomposition can be evaluated, and N,N-diethyl-m-toluamide that only adheres to the surface of a porous substance having a large specific surface area is subjected to oxidative decomposition at relatively low temperature and the weight decreases, whereas it is expected that N,N-diethyl-m-toluamide that is packed between layers of the inorganic layered compound without gaps is resistant to vaporization and oxidative decomposition and the weight will be maintained up to a higher temperature. […]

Series [2] has as its system house dust mite. As to the kind of experiment: Evaluation of persistence of repellence (after heating), JIS L 1920. Format: in vivo. To be noted: polyethylene plate, repellent chemical 0.3 %; held at 81° C. for 48 hours. On the procedure:
(§1) Plates molded after adding the pest repellents prepared in Examples 1-1 to 1-10 and Comparative Examples 1-1 to 1-14 and Comparative Reference Example 1-1 to a polyethylene resin (PE-NUC-8350 manufactured by Nippon Unicar Co., Ltd.) so that the pest repellent component was 0.3 mass % were held in a dryer at 81° C. for 48 hours. They were cut into circles having a diameter of a little under 4 cm and subjected to a test for anti-mite properties. The test was carried by an intrusion-prevention method in accordance with JIS L 1920 ‘Testing methods for efficacy against house dust mite of textiles’. Plates molded after adding the durable pest repellents prepared in Examples 2-1 to 2-12, the comparative pest repellents prepared in Comparative Examples 2-1 to 2-4, and Comparative Reference Example 2-1 to a polyethylene resin (PE-NUC-8350 manufactured by Nippon Unicar Co., Ltd.) so that the pest repellent component was 0.3 mass % were held in a dryer at 81° C. for 48 hours. They were cut into circles having a diameter of a little under 4 cm and subjected to a test for anti-mite properties. The test was carried by an intrusion-prevention method in accordance with JIS L 1920 ‘Testing methods for efficacy against house dust mite of textiles’.

Series [3] can be described thus: Evaluation of resin moldability (injection molding in polyethylene resin). The format is physicochemical. The conditions noted are these: repellent chemical 0.3 %, molding 250° C., residence 5 min. From the text:
The durable pest repellents prepared in Examples 1-1 to 1-10, and the comparative pest repellents prepared in Comparative Examples 1-1 to 1-14 and Comparative Reference Example 1-1 were mixed with a polyethylene resin (PE-NUC-8350, Nippon Unicar Co., Ltd.). For example, in the durable pest repellent of Example 1-1, since the amount of pest repellent chemical supported was 3 mass %, when the amount of repellent added in a resin composition shown in Table 2 was 5%, the amount of pest repellent chemical added was calculated as 0.15 mass %, and when the amount of repellent added in the resin composition was 10%, the amount of pest repellent chemical added was calculated as 0.3 mass %.
Resin compositions were produced by adjusting the amount of each repellent added to the resin composition so that the amount of pest repellent chemical added in the resin composition was 0.3 mass %, 0.15%, and 0.6%, they were injection-molded into flat plates, and evaluation of whether kneading into the resin was possible was carried out. Molding was carried out using a Model M-50A(II)-DM manufactured by Meiki Co., Ltd. at a molding temperature of 250° C., thus giving 10 cm square plates having a thickness of 2 mm. Furthermore, the residence time was 5 minutes, and checks as to whether or not there was foaming, a strange smell, or discoloration during molding were carried out. […]
The durable pest repellents prepared in Examples 2-1 to 2-12, the comparative pest repellents prepared in Comparative Examples 2-1 to 2-4, and Comparative Reference Example 2-1 were mixed with a polyethylene resin (PE-NUC-8350, Nippon Unicar Co., Ltd.). For example, in the durable pest repellent of Example 2-1, since the amount of pest repellent chemical supported was 5 mass %, when the amount of repellent added in a resin composition shown in Table 4 was 3%, the amount of pest repellent chemical added was calculated as 0.15 mass %, and when the amount of repellent added in the resin composition was […], the amount of pest repellent chemical added was calculated as 0.3 mass %. […]

Series [4] has as its system house dust mite. As to the kind of experiment: Evaluation of repellency, anti-mite intrusion-prevention method JIS L 1920. The format is in vivo. The conditions noted are these: polyethylene plate, repellent chemical 0.3 %. On the procedure: as §1, with “chemical” for “component”, “of the entire resin composition” for “were held in a dryer at 81° C. for 48 hours. They”, “2-4,” for “2-12, the”

Turning to `CCN(CC)C(=O)c1cccc(C)c1` [Comp. Ref. Ex. 1-1, N,N-diethyl-m-toluamide], the Heat resistance in series [1] worked out at 180 °C. The same molecule displayed a Post-heating percentage repellence in the series with house dust mite [2] of 0%. Moreover, in series [3], the “Molding properties Bad smell” value is “Some”, the “Molding properties Coloration” value is “None” and the “Molding properties Foaming” value is reported as “Some”. Also, in the series with house dust mite [4], the Initial percentage repellence amounted to 21%.
